The results in this text go back to patent publication US20030225273A1, “Thiopyrimidine and isothiazolopyrimidine kinase inhibitors” (priority 2002, published 2003).

Each structure is given as a SMILES string.

Turning to `CC(C)c1sc2ncnc(N)c2c1-c1ccc(NC(=O)c2ccccc2)cc1` [Example 8, N-[4-(4-amino-6-isopropylthieno[2,3-d]pyrimidin-5-yl)phenyl]benzamide], the melting point was more than 250 °C.
In turn, `Cc1ccc(NC(=O)Nc2ccc(-c3c(Cc4ccccc4)sc4ncnc(N)c34)cc2)cc1` [Example 9, N-[4-(4-amino-6-benzylthieno[2,3-d]pyrimidin-5-yl)phenyl]-N′-(4-methylphenyl)urea] registered a melting point of 169 to 173 °C.
On to `Nc1ncnc2sc(Cc3ccccc3)c(-c3ccc(NS(=O)(=O)c4ccccc4)cc3)c12` [Example 13, N-[4-(4-amino-6-benzylthieno[2,3-d]pyrimidin-5-yl)phenyl]benzenesulfonamide], for which the melting point was in the range of 100 to 105 °C.
As for `Cc1ccccc1NC(=O)Nc1ccc(-c2c(CCO)sc3ncnc(N)c23)cc1` [Example 107, N-{4-[4-amino-6-(2-hydroxyethyl)thieno[2,3-d]pyrimidin-5-yl]phenyl}-N′-(2-methylphenyl)urea], the melting point fell in the range of 159 to 162 °C.
With `COCCc1sc2ncnc(N)c2c1-c1ccc(NC(=O)Nc2ccc(C)cc2)cc1` [Example 110, N-{4-[4-amino-6-(2-methoxyethyl)thieno[2,3-d]pyrimidin-5-yl]phenyl}-N′-(4-methylphenyl)urea], the melting point was in the range of 128 to 132 °C.
In turn, `COCCc1sc2ncnc(N)c2c1-c1ccc(NS(=O)(=O)c2ccccc2)cc1` [Example 111, N-{4-[4-amino-6-(2-methoxyethyl)thieno[2,3-d]pyrimidin-5-yl]phenyl}benzenesulfonamide] had a melting point of 206 to 208 °C.
In the case of `COCCc1sc2ncnc(N)c2c1-c1ccc(NC(=O)Cc2cccc(C)c2)cc1` [Example 112, N-{4-[4-amino-6-(2-methoxyethyl)thieno[2,3-d]pyrimidin-5-yl]phenyl}-2-(3-methylphenyl)acetamide], the melting point is 200 to 202 °C.
Regarding `COCCc1sc2ncnc(N)c2c1-c1ccc(NC(=O)c2ccccc2)cc1` [Example 113, N-{4-[4-amino-6-(2-methoxyethyl)thieno[2,3-d]pyrimidin-5-yl]phenyl}benzamide], the melting point is 200 to 202 °C.
The molecule `Nc1ncnc2sc(Cc3cccnc3)c(-c3ccc(NC(=O)Nc4cccc(Cl)c4)cc3)c12` [Example 117, N-{4-[4-amino-6-(pyridin-3-ylmethyl)thieno[2,3-d]pyrimidin-5-yl]phenyl}-N′-(3-chlorophenyl)urea] returned a melting point of 169 to 172 °C.
As for `COCCc1sc2ncnc(N)c2c1-c1ccc(N(C(N)=O)c2ccccc2C)cc1` [Example 137, N-{4-[4-amino-6-(2-methoxyethyl)thieno[2,3-d]pyrimidin-5-yl]phenyl}-N-(2-methylphenyl)urea], the melting point was in the range of 217 to 219 °C.
The value for `NC(=O)N(c1ccc(-c2c(CCO)sc3ncnc(N)c23)cc1)c1cccc(C(F)(F)F)c1` [Example 139, N-{4-[4-amino-6-(2-hydroxyethyl)thieno[2,3-d]pyrimidin-5-yl]phenyl}-N-[3-(trifluoromethyl)phenyl]urea] was 155 to 158 °C; that for `COCCc1sc2ncnc(N)c2c1-c1ccc(NC(=O)Nc2cc(C(F)(F)F)ccc2F)cc1` [Example 140, N-{4-[4-amino-6-(2-methoxyethyl)thieno[2,3-d]pyrimidin-5-yl]phenyl}-N′-[2-fluoro-5-(trifluoromethyl)phenyl]urea] was 209 to 211 °C; that for `Nc1ncnc2sc(Cc3ccncc3)c(-c3ccc(NC(=O)Nc4cccc(C(F)(F)F)c4)cc3)c12` [Example 142, N-{4-[4-amino-6-(pyridin-4-ylmethyl)thieno[2,3-d]pyrimidin-5-yl]phenyl}-N′-[3-(trifluoromethyl)phenyl]urea] was 162 to 166 °C.
Under `Cc1cccc(CC(=O)Nc2ccc(-c3c(CCO)sc4ncnc(N)c34)cc2)c1` [Example 350, N-{4-[4-amino-6-(2-hydroxyethyl)thieno[2,3-d]pyrimidin-5-yl]phenyl}-2-(3-methylphenyl)acetamide] stands 142 to 144 °C.
